This is an account of results in patent publication EP0643699B1, “6-(2-HYDROXYETHYLAMINOALKYL)-5,11-DIOXO-5,6-DIHYDRO-11H- INDENO[1,2-C]ISOQUINOLINES AND THEIR USE AS ANTINEOPLASTIC AGENTS” (priority 1991, dated 1993).

Marks after values point to notes of the source that are not given here.

The test system of one assay is Ehrlich tumour. Description: Antitumour activity against solid form of Ehrlich tumour in mice (tumour weight, survival). In kind it is in vivo, mice H. Particulars: the fifth day after tumour transplantation; for Tumour weight (T/C, %): weighed on the fourteenth day. The source says:
(§1) The antineoplastic activity of the compounds of the invention has been investigated testing the compounds of the chemical group "in vivo" against experimental rodent tumors such as the solid form of Ehrlich tumour (STE, originally mammary adenocarcinoma), tumor HK (also transplantable originally mammary adenocarcinoma), Krebs' ascites tumour (Kr2), S37 ascites sarcoma, Nemeth-Keller lymphoma (NK), all maintained in mice H, Gardner lymphosarcoma (LsG, maintained in mice C3H), P388 and/or L1210 leukemia (maintained in DBA2 mice), B16 metastasizing melanocarcinoma (maintained in C57B1/6 mice) and Yoshida ascites reticulosarcoma (Y, maintained in Wistar rats) in experiments according to Jelinek, V. [Neoplasma 12, 469 (1965); ibid 7, 146 (1960)] and in "in vitro" experiments using radioactive precursors of nucleic acids and proteins according to Miko, M. et al. [Cancer Res 39, 4242 (1979); Neoplasma 26, 449 (1979); ibid 16, 161 (1969)] with minor modifications [Mattern, J.: Studies on the Drug Sensitivity of Short Term Cultured Tumour Cell Suspensions. In "Human Tumours in Short Term Culture" (Dendy, P.P. ed.), p.301, Academic Press 1976]. The Cox's proportional-hazards model was used for survival evaluation and optimal dose calculation according to Carter, V.H. et al. [cf Cancer Res. 42, 2963 (1982)].
Sixty female mice H weighing approximately 20 g were divided into three groups: one control group and two experimental groups of 20 animal each. A lethal dose of the 40 Ehrlich tumour homogenate was implanted subcutaneously to all the animals. The animals of test groups were treated using the compounds suspended in water. […] On the fourteenth day after the tumour transplantation, half of the animals in each group were killed by ether anaesthesia, tumours were removed and weighed. The remaining animals were left to monitor the time of death and survival time was followed. […] It was also observed that the treated animals survived longer than untreated control animals.

A further assay relates to Yoshida reticulosarcoma. Description: Survival of rats bearing Yoshida ascites reticulosarcoma. In kind it is in vivo, Wistar rats. Particulars: T/C.
From the text: as §1
Seventy infantile Vistar female rats weighing 63.0-64.8 g were divided into seven groups: one control group and six experimental groups of 10 animal each. A lethal dose of the Yoshida reticulosarcoma ascitic fluid was implanted intraperitoneally to all the animals. The animals of test groups were treated using the compound suspended in water. The suspension contained the substance in such a concentration that dose 0.6, 0.4 and/or 0.2 ml of the suspension was equal to dose 200, 100 and/or 50 mg/kg p.o., or 40, 20 and/or 10 mg/kg s.c., respectively. Doses of the drug were administered to the experimental animals once a day, for five consecutive days, starting on the first day after tumour transplantation. In all animals survival was followed. It was observed that the treated animals survived longer than untreated control animals. […] The results of the experiment are summarized in the following table and shown in the graph on the Fig. 1.

Another assay deals with L1210/MX. Kind of assay: Cytotoxicity: incorporation of [14C]amino-acid mixture, variant resistant to mitoxantron. The settings on record: Mus musculus; Tumor L1210/MX; Precursor [U-14C]Amino-acid mixture. In kind it is cell-based.
From the text: as §1, with “(1982)]. […]” for “(1982)].”

Consider `O=C1c2ccccc2-c2c1c1ccccc1c(=O)n2CCNCCO` [I (X=2), 6-[2-(2-hydroxyethyl)aminoethyl]-5,11-dioxo-5,6-dihydro-11H-indeno[1,2-c]isoquinoline], for which the “Survival time (T/C, %)” value in the assay with Ehrlich tumour (200 mg/kg p.o. once) is listed as 111%; in the assay on Ehrlich tumour (400 mg/kg p.o. once) it was 152^a) %. The “Tumour weight (T/C, %)” value in the assay with Ehrlich tumour (200 mg/kg p.o. once) was 79^a) %; with Ehrlich tumour (400 mg/kg p.o. once) it was 31^b) %. Besides, the “Period of survival (% of control)” value with Yoshida reticulosarcoma (p.o. 50 mg/kg once a day for five consecutive days) is reported as 132%; in the assay on Yoshida reticulosarcoma (p.o. 100 mg/kg once a day for five consecutive days), 230^b,^e) %; with Yoshida reticulosarcoma (p.o. 200 mg/kg once a day for five consecutive days), 219^b,^d) %; in the assay with Yoshida reticulosarcoma (s.c. 10 mg/kg once a day for five consecutive days), 203 ^b) %; in the assay with Yoshida reticulosarcoma (s.c. 20 mg/kg once a day for five consecutive days), 139^a) %; in the assay with Yoshida reticulosarcoma (s.c. 40 mg/kg once a day for five consecutive days) it was 86%. Also, the 50% inhibitory concentration (IC50) in the assay with L1210/MX came out at 119 µM.

A word on the IC50: it is the midpoint of a concentration-inhibition curve.
